Laboratory results from US8450354B2, “Substituted imidazo[1,2-b]pyridazine derivatives, pharmaceutical compositions, and methods of use as β-secretase inhibitors” (High Point Pharmaceuticals, LLC, priority 2010, dated 2013).

What was measured:
[1] = target: T1, BACE-1 enzyme (Homo sapiens, UniProt P56817); experiment: BACE Fluorescence Resonance Energy Transfer (FRET) Assay; assay type: biochemical; settings: pH 4-4.5, 30 min pre-incubation, about 1.5 hours reaction, asterisk = mean
T1 construct: purchased R & D Systems 931AS
Procedure: BACE Fluorescence Resonance Energy Transfer (FRET) Assay
In the following assay, the proteolytic activity of BACE is measured by observing cleavage of a fluorescent group from a peptide substrate containing a rhodamine fluorescent donor and a quenching acceptor.
The inhibitory activity of compounds of Formula (I) may be compared to a statine derived control inhibitor STA200 (MP Biomedical Cat. #STA-200). The cleavage reaction occurs when a BACE-1 substrate (Invitrogen, Cat. #P2986) was added to a reaction mixture containing BACE-1 enzyme (R & D Systems, Cat. #931AS) and allowed to proceed for about 1.5 hours. Fluorescence, used as a marker of BACE activity, is monitored using 540 nm excitation and 585 nm emission wavelengths (Envision, Perkin Elmer).
A typical assay reaction contains BACE-1 enzyme-in assay buffer (50 mM sodium acetate, pH 4-4.5, 0.01% CHAPS (3-[(3-Cholamidopropyl)dimethylammonio]-1-propanesulfonate), 0.0125% TritonX-100, 0.006% EDTA) which is pre-incubated for 30 minutes with test compound in 7.5% DMSO. The reaction is initiated with the addition of BACE-1 substrate in assay buffer and allowed to proceed for about 1.5 hours at room temperature. Assays are conducted in black 384-well microtiter plates and scanned at room temperature using 540 nm excitation and 585 nm emission wavelengths.
In some instances, the percent inhibition at a given concentration is reported instead of the IC50.

[2] = Aβ Cell Based Assay (Aβ1-40 secretion, ELISA); parameters: species or system human; settings: Homo sapiens, HEK293; HEK-APPwt cells, 6 hours incubation, reduction of Aβ1-40 secretion; asterisk = mean
Procedure: Aβ Cell Based Assay Procedure
In the following assay, the proteolytic activity of BACE in cells exposed to varying concentrations of a compound of interest is measured by observing the amount of Aβ1-40 secreted from HEK293 cells (Human Embryonic Kidney epithelial cell line) stably expressing wildtype human APP695 protein (HEK-APPwt cells).
HEK-APPwt cells were grown in high glucose DMEM (Dulbecco's Modified Eagles Medium SIGMA Cat. #D5796) supplemented with 25 mM HEPES (4-(2-hydroxyethyl)-1-piperazineethanesulfonic acid) (pH 7.4) (Invitrogen Cat. #15630-114), 0.1 mM NEAA (Non-essential Amino Acids) (BioWhittaker Cat. #13-114E), 10% fetal bovine serum (SIGMA Cat. #F4135) and 250 μg/mL hygromycin (Invitrogen Cat. #10687-010) in T-225 flasks at 37° C. with 5% CO2 and humidity control.
Test compounds were initially prepared in DMSO and diluted with DMEM media containing 2% FBS (Fetal bovine serum). Ten standard compound solutions were prepared having a range of concentrations. The standard compound solutions were used to determine the EC50 of the test compound. The range of concentrations chosen may depend on the compound's predicted potency.
To prepare cells for the assay, a flask containing HEK-APPwt cells were trypsinized briefly (1 mL trypsin), and once the cells detached, 4 mL of 10% FBS-DMEM was added to the flask. The detached cells were centrifuged at 900 rpm for 5 min to form a pellet.
The HEK-APPwt cell pellet was re-suspended with 10 mL DMEM media containing 2% FBS. 80 μL of the cell suspension was added to each well of a 96-well cell culture plate to give 100×10^4 cells/ml. 10 μL of a standard compound solution was added to each well of the 96-well cell culture plate followed by 10 μL of Alamar blue solution. The cells were incubated at 37° C. in a 5% CO2 incubator for 6 hours.
At the end of the incubation, the plates were removed from incubator, and the supernatant was collected. Aβ1-40 concentration in the medium was measured by using a commercial Aβ1-X ELISA kit (IBL, Japan Cat. #27729). Briefly, the ELISA plates were coated with an anti-human Aβ (N)(82E1) mouse IgG monoclonal antibody. A horseradish peroxidase conjugated anti-human Aβ11-28 mouse IgG monoclonal antibody was used for detection. The cell culture supernatant was diluted with EIA buffer+protease inhibitors (kit buffer containing protease inhibitors (1 mL PI/30 mL buffer)). A 100 μL aliquot of the diluted supernatant was added to each well of the ELISA plate and incubated for 6 hrs at 4° C. The ELISA plate was washed 8 times with phosphate buffered saline (PBS) containing 0.05% TWEEN 20.
A 100 μL of detection antibody was then added and incubated for 1 hour at 4° C. The plate was washed 8 times with PBS buffer containing 0.05% Tween 20 followed by addition of 100 μL of the chromogen tetramethylbenzidine (TMB). The plate was incubated in the dark at room temperature for about 30 min and a stop solution (1N H2SO4) was added.
The intensity of the color developed was measured at 450 nm. The optical density at 450 nm (OD450) is proportional to the concentration of human Aβ1-40 secreted by the cell. As a reference, N—[N-(3,5-difluorophenacetyl-L-alanyl)]—S-phenylglycine t-butyl ester (DAPT, a γ-secretase inhibitor) was used to indicate 100% inhibition of […]. Thus, the assay measures the ability of a compound of interest to reduce Aβ1-40 secretion. Compound potency is reported in Table 3 as the EC50 by calculating the percent inhibition at all concentration levels and the data were fit with non-linear curve fitting algorithm using GraphPad Prism.

T1 sequence (P56817 46-457 limits assumed): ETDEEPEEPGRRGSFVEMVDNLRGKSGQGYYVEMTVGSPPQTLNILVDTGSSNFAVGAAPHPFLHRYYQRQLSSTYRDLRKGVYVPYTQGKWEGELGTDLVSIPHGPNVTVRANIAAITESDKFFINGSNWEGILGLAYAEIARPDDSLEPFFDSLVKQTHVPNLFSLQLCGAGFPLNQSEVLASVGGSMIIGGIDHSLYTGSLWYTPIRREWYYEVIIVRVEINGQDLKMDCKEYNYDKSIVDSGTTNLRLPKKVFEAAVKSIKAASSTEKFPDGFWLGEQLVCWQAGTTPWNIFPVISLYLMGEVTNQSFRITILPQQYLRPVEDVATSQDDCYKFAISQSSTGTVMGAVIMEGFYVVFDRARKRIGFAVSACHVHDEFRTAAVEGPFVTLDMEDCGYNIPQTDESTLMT

Structure (SMILES): C[C@H](O)[C@H](C)Oc1ccc2nc(C(=O)Nc3nc4cc(-c5cccc(C(F)(F)F)c5)ccc4[nH]3)cn2n1 [Example 101]
- IC50 [1]: 0.136 µM
- EC50 [2]: 1.17 µM

Structure (SMILES): O=C(Nc1nc2cc(-c3cc(F)cc(Cl)c3)ccc2[nH]1)c1cn2nc(OCC3(CO)CC3)ccc2n1 [Example 104]
- IC50 [1]: 0.277 µM
- EC50 [2]: 0.33 µM

Structure (SMILES): CC[C@@H](O)COc1ccc2nc(C(=O)Nc3nc4cc(-c5cc(F)cc(Cl)c5)ccc4[nH]3)cn2n1 [Example 105]
- IC50 [1]: 0.064 µM
- EC50 [2]: 1.27 µM

Structure (SMILES): CC[C@H](O)COc1ccc2nc(C(=O)Nc3nc4cc(-c5cc(F)cc(Cl)c5)ccc4[nH]3)cn2n1 [Example 106]
- IC50 [1]: 0.139 µM
- EC50 [2]: 0.86 µM

Structure (SMILES): CC(C)[C@@H](O)COc1ccc2nc(C(=O)Nc3nc4cc(-c5cc(F)cc(Cl)c5)ccc4[nH]3)cn2n1 [Example 107]
- IC50 [1]: 0.215 µM
- EC50 [2]: 0.79 µM

Structure (SMILES): CC(C)[C@H](O)COc1ccc2nc(C(=O)Nc3nc4cc(-c5cc(F)cc(Cl)c5)ccc4[nH]3)cn2n1 [Example 108]
- IC50 [1]: 0.357 µM
- EC50 [2]: 0.89 µM

Structure (SMILES): CC(C)(O)COc1ccc2nc(C(=O)Nc3nc4cc(-c5cccc(OC(F)(F)F)c5)ccc4[nH]3)cn2n1 [Example 112]
- IC50 [1]: 0.251 µM
- EC50 [2]: 0.48 µM

Structure (SMILES): O=C(Nc1nc2cc(-c3cc(F)cc(Cl)c3)ccc2[nH]1)c1cn2nc(OCCCO)ccc2n1 [Example 113]
- IC50 [1]: 0.528 µM
- EC50 [2]: 1.71 µM

Structure (SMILES): CC(C)(O)CCOc1ccc2nc(C(=O)Nc3nc4cc(-c5cc(F)cc(Cl)c5)ccc4[nH]3)cn2n1 [Example 114]
- IC50 [1]: 0.279 µM
- EC50 [2]: 0.33 µM

Structure (SMILES): C[C@@H](O)CCOc1ccc2nc(C(=O)Nc3nc4cc(-c5cc(F)cc(Cl)c5)ccc4[nH]3)cn2n1 [Example 118]
- IC50 [1]: 0.318 µM
- EC50 [2]: 1.06 µM

Structure (SMILES): C[C@H](O)CCOc1ccc2nc(C(=O)Nc3nc4cc(-c5cc(F)cc(Cl)c5)ccc4[nH]3)cn2n1 [Example 119]
- IC50 [1]: 0.298 µM
- EC50 [2]: 0.77 µM

Structure (SMILES): C[C@H](C[C@@H](C)O)Oc1ccc2nc(C(=O)Nc3nc4cc(-c5cccc(C(F)(F)F)c5)ccc4[nH]3)cn2n1 [Example 120, 6-((1R,3R)-3-hydroxy-1-methyl-butoxy)-imidazo[1,2-b]pyridazine-2-carboxylic acid [5-(3-trifluoromethyl-phenyl)-1H-benzoimidazol-2-yl]-amide]
- IC50 [1]: 0.455 µM
- EC50 [2]: 0.07 µM

Structure (SMILES): C[C@@H](O)COc1ccc2nc(C(=O)Nc3nc4cc(-c5ccc(C(F)(F)F)c(Cl)c5)ccc4[nH]3)cn2n1 [Example 122, 6-((R)-2-hydroxy-propoxy)-imidazol[1,2-b]pyridazine-2-carboxylic acid [5-(3-chloro-4-trifluoromethyl-phenyl)-1H-benzoimidazol-2-yl]-amide]
- IC50 [1]: 0.371 µM
- EC50 [2]: 0.1 µM

Structure (SMILES): C[C@H](O)COc1ccc2nc(C(=O)Nc3nc4cc(-c5ccc(C(F)(F)F)c(Cl)c5)ccc4[nH]3)cn2n1 [Example 123, 6-((S)-2-Hydroxy-propoxy)-imidazo[1,2-b]pyridazine-2-carboxylic acid [5-(3-chloro-4-trifluoromethyl-phenyl)-1H-benzoimidazol-2-yl]-amide]
- IC50 [1]: 0.372 µM
- EC50 [2]: 0.12 µM

Structure (SMILES): CCC[C@@H](O)COc1ccc2nc(C(=O)Nc3nc4cc(-c5cc(F)cc(Cl)c5)ccc4[nH]3)cn2n1 [Example 124]
- IC50 [1]: 0.419 µM
- EC50 [2]: 0.3 µM

Structure (SMILES): CCCC[C@H](O)COc1ccc2nc(C(=O)Nc3nc4cc(-c5cc(F)cc(Cl)c5)ccc4[nH]3)cn2n1 [Example 127]
- IC50 [1]: 0.163 µM
- EC50 [2]: 0.71 µM

Structure (SMILES): O=C(Nc1nc2cc(-c3cc(F)cc(Cl)c3)ccc2[nH]1)c1cn2nc(OCCCCO)ccc2n1 [Example 130]
- IC50 [1]: 0.169 µM
- EC50 [2]: 0.23 µM

Structure (SMILES): O=C(Nc1nc2cc(-c3ccc(F)c(Cl)c3)ccc2[nH]1)c1cn2nc(OCCO)ccc2n1 [Example 131, 6-(2-Hydroxy-ethoxy)-imidazo[1,2-b]pyridazine-2-carboxylic acid [5-(3-chloro-4-fluoro-phenyl)-1H-benzoimidazol-2-yl]-amide]
- IC50 [1]: 0.245 µM
- EC50 [2]: 0.15 µM

Structure (SMILES): O=C(Nc1nc2cc(-c3cc(F)cc(Cl)c3)ccc2[nH]1)c1cn2nc(OCC3(CO)CCC3)ccc2n1 [Example 132]
- IC50 [1]: 0.344 µM
- EC50 [2]: 0.47 µM

Structure (SMILES): O=C(Nc1nc2cc(-c3cc(F)cc(Cl)c3)ccc2[nH]1)c1cn2nc(OC3COC4C(O)COC34)ccc2n1 (stereo not drawn) [Example 133]
- IC50 [1]: 0.262 µM
- EC50 [2]: 0.56 µM

Structure (SMILES): O=C(Nc1nc2cc(-c3cccc(OC(F)(F)F)c3)ccc2[nH]1)c1cn2nc(OC[C@H]3CC[C@@H](CO)O3)ccc2n1 [Example 134]
- IC50 [1]: 0.203 µM
- EC50 [2]: 0.75 µM

Structure (SMILES): COC[C@H](COc1ccc2nc(C(=O)Nc3nc4cc(-c5cccc(C(F)(F)F)c5)ccc4[nH]3)cn2n1)OC [Example 135]
- IC50 [1]: 0.117 µM
- EC50 [2]: 0.45 µM

Structure (SMILES): CN(C)C(=O)COc1ccc2nc(C(=O)Nc3nc4cc(-c5cccc(C(F)(F)F)c5)ccc4[nH]3)cn2n1 [Example 141]
- IC50 [1]: 0.172 µM
- EC50 [2]: 1.3 µM

Structure (SMILES): O=C(Nc1nc2cc(-c3cc(F)cc(Cl)c3)ccc2[nH]1)c1cn2nc(N3CCC(O)CC3)ccc2n1 [Example 142, 6-(4-Hydroxy-piperidin-1-yl)-imidazo[1,2-b]pyridazine-2-carboxylic acid [5-(3-chloro-5-fluoro-phenyl)-1H-benzoimidazol-2-yl]-amide]
- IC50 [1]: 0.134 µM
- EC50 [2]: 0.63 µM

Structure (SMILES): O=C(Nc1nc2cc(-c3cccc(Cl)c3)ccc2[nH]1)c1cn2nc(OCCO)ccc2n1 [Example 144, 6-(2-hydroxy-ethoxy)-imidazo[1,2-b]pyridazine-2-carboxylic acid [5-(3-chloro-phenyl)-1H-benzoimidazol-2-yl]-amide]
- IC50 [1]: 0.128 µM
- EC50 [2]: 0.94 µM

Structure (SMILES): C[C@H](O)COc1ccc2nc(C(=O)Nc3nc4cc(-c5cccc(OC(F)(F)F)c5)ccc4[nH]3)cn2n1 [Example 145, 6-((S)-2-hydroxy-propoxy)-imidazo[1,2-b]pyridazine-2-carboxylic acid [5-(3-trifluoromethoxy-phenyl)-1H-benzoimidazol-2-yl]-amide]
- IC50 [1]: 0.15 µM
- EC50 [2]: 1.09 µM

Structure (SMILES): C[C@@H](O)[C@@H](C)Oc1ccc2nc(C(=O)Nc3nc4cc(-c5cc(F)cc(Cl)c5)ccc4[nH]3)cn2n1 [Example 146, 6-((1R,2R)-2-hydroxy-1-methyl-propoxy)-imidazo[1,2-b]pyridazine-2-carboxylic acid [5-(3-chloro-5-fluoro-phenyl)-1H-benzoimidazol-2-yl]-amide]
- IC50 [1]: 0.376 µM
- EC50 [2]: 0.11 µM
